Experimental data: patent US11986471B2, “Compounds and methods of use” (Tango Therapeutics, Inc., priority 2018, dated 2024)

How the values were obtained:
PRMT5 [1] = biological target: T1, PRMT5 (Homo sapiens, UniProt O14744); test: PRMT5 IC50 assay in the presence of SAM as cofactor; format: biochemical
T1 construct: purchased Viva (custom protein)
Method in brief: (§1)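 Each compound is tested on PRMT5 in the presence of SAM, of MTA, and without any cofactor. Ki values are then back-calculated using fixed factors of 1.5 (SAM) and 13.5 (MTA), and the two Ki values are compared as a ratio.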

PRMT5 [2] = biological target: T1, PRMT5; test: PRMT5 IC50 assay with no cofactor; format: biochemical
Method in brief: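 Ki conversion: SAM arm, Ki=IC50/1.5; MTA arm, Ki=IC50/13.5. No-cofactor arm reported as IC50 only. Selectivity expressed as Ki(SAM)/Ki(MTA).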

PRMT5 [3] = biological target: T1, PRMT5; test: PRMT5 IC50 assay in the presence of MTA as cofactor; format: biochemical; settings: for IC50: PRMT5, MTA as cofactor
Method in brief: as §1

HAP1 MTAP-intact = test: SDMA in-cell western assay, HAP1 MTAP-intact cell line; format: cell-based; settings: Homo sapiens
Method in brief: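 Cells from two matched HAP1 lines, MTAP-null and MTAP-expressing at endogenous levels, are treated with compound. SDMA is then quantified by in-cell western and an IC50 is calculated for each line.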

HAP1 MTAP-deleted = test: SDMA in-cell western assay, HAP1 MTAP-deleted cell line; format: cell-based; settings: for IC50: Homo sapiens, HAP1 MTAP-deleted cell line; for MTAP Intact/Deleted Ratio: IC50 ratio HAP1 MTAP-intact / HAP1 MTAP-deleted
Method in brief: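 MTAP-null HAP1 cells, the deleted member of an isogenic pair with endogenously MTAP-expressing HAP1, are treated with compound. SDMA is then quantified by in-cell western and an IC50 is calculated.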

[4] = ratio between the Ki in the presence of SAM and the Ki in the presence of MTA
[5] = ratio between Ki in the presence of SAM and Ki in the presence of MTA

T1 sequence (O14744 whole entry): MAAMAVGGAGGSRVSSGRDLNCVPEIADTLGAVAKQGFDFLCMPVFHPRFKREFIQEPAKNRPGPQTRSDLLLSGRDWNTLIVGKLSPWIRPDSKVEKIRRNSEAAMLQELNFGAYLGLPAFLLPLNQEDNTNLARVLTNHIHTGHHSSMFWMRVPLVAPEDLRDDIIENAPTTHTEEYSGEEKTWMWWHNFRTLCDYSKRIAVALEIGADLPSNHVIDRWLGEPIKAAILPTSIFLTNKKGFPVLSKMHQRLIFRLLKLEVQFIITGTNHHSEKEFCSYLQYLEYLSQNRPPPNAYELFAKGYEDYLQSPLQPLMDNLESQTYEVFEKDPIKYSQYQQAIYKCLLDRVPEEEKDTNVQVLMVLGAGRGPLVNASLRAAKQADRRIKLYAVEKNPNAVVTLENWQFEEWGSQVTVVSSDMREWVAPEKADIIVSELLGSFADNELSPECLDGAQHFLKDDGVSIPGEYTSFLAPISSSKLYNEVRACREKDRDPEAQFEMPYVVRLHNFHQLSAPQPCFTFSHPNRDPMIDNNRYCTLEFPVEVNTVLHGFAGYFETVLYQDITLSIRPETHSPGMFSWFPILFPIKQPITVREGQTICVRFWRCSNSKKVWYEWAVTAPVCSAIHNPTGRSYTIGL
T1 sequence (Q9BQA1 whole entry partner): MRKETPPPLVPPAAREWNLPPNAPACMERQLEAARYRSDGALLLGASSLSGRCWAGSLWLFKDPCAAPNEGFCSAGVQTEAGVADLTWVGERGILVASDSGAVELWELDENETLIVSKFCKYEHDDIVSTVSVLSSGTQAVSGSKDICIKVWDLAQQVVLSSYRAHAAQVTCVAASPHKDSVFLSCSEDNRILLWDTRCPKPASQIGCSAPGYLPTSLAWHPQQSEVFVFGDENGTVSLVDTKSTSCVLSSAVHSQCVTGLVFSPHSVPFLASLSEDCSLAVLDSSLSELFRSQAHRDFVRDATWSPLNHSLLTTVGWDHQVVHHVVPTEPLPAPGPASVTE

Row | SMILES | IC50 (PRMT5 [1]) | IC50 (PRMT5 [2]) | IC50 (PRMT5 [3]) | SAM/MTA Ratio (PRMT5 [3]; [4]) | IC50 (HAP1 MTAP-intact) | IC50 (HAP1 MTAP-deleted) | MTAP Intact/Deleted Ratio (HAP1 MTAP-deleted) | IC50 (PRMT5 [2]; read-out: No Co-factor IC50) | SAM/MTA Ratio (PRMT5 [3]; [5])
1 | CC(=O)N1CCN(c2cc(C(=O)NC[C@H](O)CN3CCc4cc(OCc5ocnc5C)c(F)cc4C3)cc(NC3CCC3)n2)CC1 [Compound 615, 2-(4-acetylpiperazin-1-yl)-6-(cyclobutylamino)-N-[(2S)-3-[7-fluoro-6-[(4-methyloxazol-5-yl)methoxy]-3,4-dihydro-1H-isoquinolin-2-yl]-2-hydroxy-propyl]pyridine-4-carboxamide] | 0.05 to 0.5 µM | 0.5 to 5 µM | 0.05 to 0.5 µM | A (a Ki ratio greater than or equal to 10 fold between the Ki in the presence of SAM and the Ki in the presence of MTA) | 1 to 10 µM | < 1 µM | A* (an IC50 ratio greater than or equal to 10 fold between the IC50 in the HAP1 MTAP-intact cell line and the HAP1 MTAP-deleted cell line) |  | 
2 | Cc1ncoc1COc1ccc2c(c1)CCN(C[C@@H](O)CNC(=O)c1cc(NC3CCN(C(=O)C(C)(C)C)CC3)ncn1)C2 [Compound 616, 6-{[1-(2,2-dimethylpropanoyl)piperidin-4-yl]amino}-N-[(2S)-2-hydroxy-3-{6-[(4-methyl-1,3-oxazol-5-yl)methoxy]-1,2,3,4-tetrahydroisoquinolin-2-yl}propyl]pyrimidine-4-carboxamide] | 0.05 to 0.5 µM | 0.5 to 5 µM | < 0.05 µM | A (a Ki ratio greater than or equal to 10 fold between the Ki in the presence of SAM and the Ki in the presence of MTA) | 1 to 10 µM | < 1 µM | C* (an IC50 ratio of less than 3 fold between the IC50 in the HAP1 MTAP-intact cell line and the HAP1 MTAP-deleted cell line) |  | 
3 | CC(=O)N1CCC(Nc2cc(C(=O)NC[C@H](O)CN3CCc4nc(OCc5ocnc5C)ccc4C3)ccn2)CC1 [Compound 617, 2-[(1-acetyl-4-piperidyl)amino]-N-[(2S)-2-hydroxy-3-[2-[(4-methyloxazol-5-yl)methoxy]-7,8-dihydro-5H-1,6-naphthyridin-6-yl]propyl]pyridine-4-carboxamide] | 0.05 to 0.5 µM | 0.5 to 5 µM | 0.05 to 0.5 µM |  | ≥ 10 µM | 1 to 10 µM | C* (an IC50 ratio of less than 3 fold between the IC50 in the HAP1 MTAP-intact cell line and the HAP1 MTAP-deleted cell line) |  | 
4 | CC(=O)N1CCC(Nc2cc(C(=O)NC[C@H](O)CN3CCc4c(C)c(OCc5ocnc5C)cc(F)c4C3)ncn2)CC1 [Compound 618, 6-[(1-acetyl-4-piperidyl)amino]-N-[(2S)-3-[8-fluoro-5-methyl-6-[(4-methyloxazol-5-yl)methoxy]-3,4-dihydro-1H-isoquinolin-2-yl]-2-hydroxy-propyl]pyrimidine-4-carboxamide] | 0.05 to 0.5 µM | 0.5 to 5 µM | 0.05 to 0.5 µM |  | ≥ 10 µM | 1 to 10 µM | B* (an IC50 ratio greater than or equal to 3 fold but lower than 10 fold between the IC50 in the HAP1 MTAP-intact cell line and the HAP1 MTAP-deleted cell line) |  | 
5 | Cc1ncoc1COc1cc(F)c2c(c1C)CCN(C[C@@H](O)CNC(=O)c1ccnc(NC3CCC3)c1)C2 [Compound 619, 2-(cyclobutylamino)-N-[(2S)-3-[8-fluoro-5-methyl-6-[(4-methyloxazol-5-yl)methoxy]-3,4-dihydro-1H-isoquinolin-2-yl]-2-hydroxy-propyl]pyridine-4-carboxamide] | 0.05 to 0.5 µM | 0.5 to 5 µM | 0.05 to 0.5 µM |  | ≥ 10 µM | 1 to 10 µM | C* (an IC50 ratio of less than 3 fold between the IC50 in the HAP1 MTAP-intact cell line and the HAP1 MTAP-deleted cell line) |  | 
6 | Cc1ncoc1COc1ccc2c(c1)CCN(C[C@@H](O)CNC(=O)c1ccnc(NC3CC4(CC4)C3)c1)C2 [Compound 621, (S)—N-(2-hydroxy-3-(6-((4-methyloxazol-5-yl)methoxy)-3,4-dihydroisoquinolin-2(1H)-yl)propyl)-2-(spiro[2.3]hexan-5-ylamino)isonicotinamide] | 0.05 to 0.5 µM | 0.5 to 5 µM | 0.05 to 0.5 µM | A (a Ki ratio greater than or equal to 10 fold between the Ki in the presence of SAM and the Ki in the presence of MTA) | < 1 µM | < 1 µM | B* (an IC50 ratio greater than or equal to 3 fold but lower than 10 fold between the IC50 in the HAP1 MTAP-intact cell line and the HAP1 MTAP-deleted cell line) |  | 
7 | CC(=O)N1CCC(Nc2cc(C(=O)NC[C@H](O)CN3CCc4cc(OCc5ocnc5C)ccc4C3)ccn2)CC1 [Compound 622, (S)-2-((1-acetylpiperidin-4-yl)amino)-N-(2-hydroxy-3-(6-((4-methyloxazol-5-yl)methoxy)-3,4-dihydroisoquinolin-2(1H)-yl)propyl)isonicotinamide] | 0.05 to 0.5 µM | 0.5 to 5 µM | < 0.05 µM | A (a Ki ratio greater than or equal to 10 fold between the Ki in the presence of SAM and the Ki in the presence of MTA) | ≥ 10 µM | < 1 µM | A* (an IC50 ratio greater than or equal to 10 fold between the IC50 in the HAP1 MTAP-intact cell line and the HAP1 MTAP-deleted cell line) |  | 
8 | CC(=O)N1CCC(Nc2cc(C(=O)NC[C@H](O)CN3CCc4cc(OCc5ocnc5C)c(F)cc4C3)cc(N3CCCCC3)n2)CC1 [Compound 623] | 0.05 to 0.5 µM | 0.05 to 0.5 µM | 0.05 to 0.5 µM | A (a Ki ratio greater than or equal to 10 fold between the Ki in the presence of SAM and the Ki in the presence of MTA) | 1 to 10 µM | < 1 µM | A* (an IC50 ratio greater than or equal to 10 fold between the IC50 in the HAP1 MTAP-intact cell line and the HAP1 MTAP-deleted cell line) |  | 
9 | Cc1ncoc1COc1ccc2c(c1)CCN(C[C@@H](O)CNC(=O)c1ccnc(NC3CCN(C(=O)C4CC4)CC3)c1)C2 [Compound 624, (S)-2-((1-(cyclopropanecarbonyl)piperidin-4-yl)amino)-N-(2-hydroxy-3-(6-((4-methyloxazol-5-yl)methoxy)-3,4-dihydroisoquinolin-2(1H)-yl)propyl)isonicotinamide] | 0.05 to 0.5 µM |  | < 0.05 µM |  | 1 to 10 µM | < 1 µM | A* (an IC50 ratio greater than or equal to 10 fold between the IC50 in the HAP1 MTAP-intact cell line and the HAP1 MTAP-deleted cell line) | 0.5 to 5 µM | A (a Ki ratio greater than or equal to 10 fold between the Ki in the presence of SAM and the Ki in the presence of MTA)
10 | CC(=O)N1CCC(Nc2cc(C(=O)NC[C@H](O)CN3CCc4cc(OCc5ocnc5C)c(F)cc4C3)ccn2)CC1 [Compound 625] | 0.05 to 0.5 µM |  | 0.05 to 0.5 µM |  | ≥ 10 µM | < 1 µM | A* (an IC50 ratio greater than or equal to 10 fold between the IC50 in the HAP1 MTAP-intact cell line and the HAP1 MTAP-deleted cell line) | 0.5 to 5 µM | A (a Ki ratio greater than or equal to 10 fold between the Ki in the presence of SAM and the Ki in the presence of MTA)
11 | CC(=O)N1CCC(Nc2cc(C(=O)NC[C@H](O)CN3CCc4cc(OCc5ocnc5C)ccc4C3)cc(N(C)C3CCC3)n2)CC1 [Compound 628, (S)-2-((1-acetylpiperidin-4-yl)amino)-6-(cyclobutyl(methyl)amino)-N-(2-hydroxy-3-(6-((4-methyloxazol-5-yl)methoxy)-3,4-dihydroisoquinolin-2(1H)-yl)propyl)isonicotinamide] | 0.05 to 0.5 µM |  | < 0.05 µM |  | 1 to 10 µM | < 1 µM | B* (an IC50 ratio greater than or equal to 3 fold but lower than 10 fold between the IC50 in the HAP1 MTAP-intact cell line and the HAP1 MTAP-deleted cell line) | 0.5 to 5 µM | A (a Ki ratio greater than or equal to 10 fold between the Ki in the presence of SAM and the Ki in the presence of MTA)
12 | CC(=O)N1CCC(Nc2cc(C(=O)NC[C@H](O)CN3CCc4cc(OCc5ocnc5C)ccc4C3)cc(N(C)C)n2)CC1 [Compound 629, (S)-2-((1-acetylpiperidin-4-yl)amino)-6-(dimethylamino)-N-(2-hydroxy-3-(6-((4-methyloxazol-5-yl)methoxy)-3,4-dihydroisoquinolin-2(1H)-yl)propyl)isonicotinamide] | 0.05 to 0.5 µM |  | 0.05 to 0.5 µM |  | 1 to 10 µM | < 1 µM | A* (an IC50 ratio greater than or equal to 10 fold between the IC50 in the HAP1 MTAP-intact cell line and the HAP1 MTAP-deleted cell line) | 0.5 to 5 µM | A (a Ki ratio greater than or equal to 10 fold between the Ki in the presence of SAM and the Ki in the presence of MTA)
13 | CC(=O)N1CC(Nc2cc(C(=O)NC[C@H](O)CN3CCc4cc(OCc5ocnc5C)ccc4C3)cc(N3CCCCC3)n2)C1 [Compound 634] | 0.05 to 0.5 µM |  | < 0.05 µM |  | 1 to 10 µM | 1 to 10 µM | B* (an IC50 ratio greater than or equal to 3 fold but lower than 10 fold between the IC50 in the HAP1 MTAP-intact cell line and the HAP1 MTAP-deleted cell line) | 0.05 to 0.5 µM | A (a Ki ratio greater than or equal to 10 fold between the Ki in the presence of SAM and the Ki in the presence of MTA)
